Assay results as given in US20100008894A1, “Process of Screening a Molecule as a Candidate Drug for the Treatment of Bipolar Disorder” (Institute pasteur, priority 2005, published 2010).

Experiments:
[1] = biological target: NM23-H2 (Homo sapiens, UniProt P22392); conditions: cited from earlier work
[2] = biological target: T1, Orn (Escherichia coli, UniProt P0A784); experiment: Orn activity assay (degradation of RNA-oligo 5mer); format: biochemical, E. coli; conditions: 10 μM inhibitor; 3 μM 5′Cy5-CCCCC3′ RNA
T1 construct: made in house; host or cells: E. coli MG1655 carrying pUM408, arabinose-induced
Description: Custome made RNA-oligo 5mers (5′Cy5-CCCCC3′), obtained from Proligo, were used as substrate for in vitro activity assays. 30 μl reactions containing 50 mM HEPES pH 7.5, 5 mM MnCl2, 3 μM substrate RNA and 0.1 μg oligoribonuclease were incubated at 37° C., and reactions were initiated by adding substrate. Inhibitors were added as indicated in the text. At intervals, 5 μl reaction aliquots were taken and stopped by adding an equal volume of sample buffer (95% formamide, 20 mM EDTA, 0.1% bromphenol blue) and frozen at −20° C. For analysis of the reaction products, samples were heated at 80° C. for 3 minutes and 2.5 μl was applied to PAGE on a 22% SDS-PAA gel containing 2×TBE and run in 2×TBE. Fluorescent RNA oligos were visualized using a Molecular Dynamics STORM 860 in 650-nm long-pass filter mode.
Given the strong affinity of Orn for pAp, it was investigated whether pAp affects Orn activity. […] Those small RNA-oligos are called here nanoRNAs, in order to distinguish them from microRNAs, which have become a subject of extensive studies in the last several years. RNA-oligo 5-mers (5′-CCCCC-3′) labeled at their 5′-phosphate end with the sulfoindocyanine succinimidyl ester cyanine 5 (Cy5) were therefore used as substrate for in vitro assays with purified recombinant Orn. […]

[3] = biological target: T1, Orn; experiment: pAp/AMP-binding assay with recombinant Orn; parameters: species or system E. coli; conditions: 15 μg protein, 5 μl agarose
Description: (§1) 30 μl samples containing 15 μg of Orn-His or CysQ-His in pAp-agarose buffer containing 100 mM NaCl were incubated with 5 μl of prewashed pAp- or AMP-agarose by rotating for 1 hour at 4° C. in durapore spin columns (Millipore). Beads were removed by centrifugation, and 5 μl of the unbound fraction, designated flow through was measured for protein content using Bio-Rad protein assay. The fraction bound to the beads was eluted by the addition of 40 μl of hot SDS-sample buffer and incubation for 15 minutes at 65° C.
(§2) Orn is an essential protein in E. coli involved in mRNA degradation. It has 3′ to 5′ exoribonuclease activity selectively active on short ribonucleotides. 5′adenosine monophosphate (AMP) is known to inhibit Orn (Datta & Niyogi, 1975). It was therefore important to compare binding of Orn to AMP and pAp. To this end recombinant Orn has been purified and its binding was measured to equal amounts of pAp- or AMP-agarose, both affinity substrates with identical binding capacities, CysQ was included as a positive control. Similar experiments were done with cell free extracts from strains overexpressing Orn or CysQ. […] Furthermore, significant amounts of Orn, roughly one third, but not CysQ bind to AMP-agarose. […]

[4] = biological target: T2, CysQ (Escherichia coli, UniProt P22255); experiment: pAp/AMP-binding assay with recombinant CysQ; parameters: species or system E. coli; conditions: 15 μg protein, 5 μl agarose
T2 construct: made in house; host or cells: E. coli MG1655 carrying pUM404, arabinose-induced
Description: as §1, §2

[5] = biological target: T2, CysQ; format: biochemical, E. coli
[6] = biological target: T3, Sfn (Homo sapiens, UniProt Q9Y3B8); experiment: Sfn-catalyzed degradation of oligo RNA; format: biochemical
T3 construct: His tag; made in house
T3 sequence (Q9Y3B8 26-237): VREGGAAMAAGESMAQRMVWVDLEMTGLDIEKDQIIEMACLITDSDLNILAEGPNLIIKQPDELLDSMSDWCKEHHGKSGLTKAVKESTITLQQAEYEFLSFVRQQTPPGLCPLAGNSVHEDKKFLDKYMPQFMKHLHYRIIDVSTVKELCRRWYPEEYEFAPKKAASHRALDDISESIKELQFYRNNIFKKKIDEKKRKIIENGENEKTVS
Description: (§3) FIG. 9: Sensitivity of Sfn-catalyzed degradation of oligo RNA to pAp. Shown is the quantification of the distribution of reaction products that were separated on 22% PAA gels. Reactions included 0.5 μg Sfn and 3 μM of RNA oligo 5mer (5′Cy5-CCCCC3′). Reactions were started by the addition of enzyme. 20 μM or 50 μM pAp was present where indicated. Closed circle: 5mer, open circle: 4mer, closed triangle: 3mer, open triangle: 2mer, square: 1mer.
The term nanoRNA has been introduced to describe these extremely short RNA oligos. The Inventors have purified His-tagged Sfn in order to evaluate its sensitivity to pAp in-vitro. Inhibition of Sfn-catalyzed degradation of nanoRNA was tested at two concentrations of the inhibitor, 20 and 50 μM.

[7] = biological target: T3, Sfn; experiment: Sfn-catalyzed degradation of oligo DNA; format: biochemical; conditions: 50 μM pAp; DNA oligo 5mer
Description: as §3, with “10:” for “9:”, “DNA” for “RNA”, “3” for “0.5”, “enzyme.” for “enzyme. 20 μM or”, “2mer. Monomers could not be included into this calculation due to their inability to enter the gel.” for “2mer, square: 1mer.”

[8] = biological target: T4, PARP (Homo sapiens, UniProt P09874); experiment: Colorimetric PARP assay from Trevigen; format: biochemical; conditions: 1 μM pAp, in vitro
T4 construct: purchased Trevigen
Source text: The Inventors plan to verify this effect using an independent method, as they are not certain the effect that can be observed with the kit they used for this experiment (Colorimetric PARP assay from Trevigen) is independent of the nature of the inhibitor, as it seems that the phenomenon of self-inhibition of PARP due to auto modification has an important impact on the result. They plan therefore to measure PARP activity in-vitro in the presence or absence of pAp according to J. C. Ame using ^32P-NAD.

T2 sequence (P22255 whole entry): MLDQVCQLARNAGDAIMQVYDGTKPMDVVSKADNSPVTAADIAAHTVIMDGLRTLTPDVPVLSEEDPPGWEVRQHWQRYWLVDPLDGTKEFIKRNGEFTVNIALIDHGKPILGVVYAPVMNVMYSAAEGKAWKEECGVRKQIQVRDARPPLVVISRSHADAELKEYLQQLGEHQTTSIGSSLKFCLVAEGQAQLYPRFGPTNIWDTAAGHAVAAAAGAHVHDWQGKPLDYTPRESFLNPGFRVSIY
T1 sequence (P0A784 whole entry): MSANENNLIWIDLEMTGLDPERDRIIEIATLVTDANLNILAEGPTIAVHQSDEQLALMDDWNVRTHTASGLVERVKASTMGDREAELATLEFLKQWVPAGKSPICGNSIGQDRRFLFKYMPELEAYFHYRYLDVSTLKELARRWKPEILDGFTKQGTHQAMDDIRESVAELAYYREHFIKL
Sequence of NM23-H2 (P22392 whole entry): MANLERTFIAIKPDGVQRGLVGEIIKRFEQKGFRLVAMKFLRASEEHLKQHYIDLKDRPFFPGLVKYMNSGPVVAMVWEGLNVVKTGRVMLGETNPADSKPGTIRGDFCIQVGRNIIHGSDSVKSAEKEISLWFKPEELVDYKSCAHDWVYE
T4 sequence (P09874 whole entry): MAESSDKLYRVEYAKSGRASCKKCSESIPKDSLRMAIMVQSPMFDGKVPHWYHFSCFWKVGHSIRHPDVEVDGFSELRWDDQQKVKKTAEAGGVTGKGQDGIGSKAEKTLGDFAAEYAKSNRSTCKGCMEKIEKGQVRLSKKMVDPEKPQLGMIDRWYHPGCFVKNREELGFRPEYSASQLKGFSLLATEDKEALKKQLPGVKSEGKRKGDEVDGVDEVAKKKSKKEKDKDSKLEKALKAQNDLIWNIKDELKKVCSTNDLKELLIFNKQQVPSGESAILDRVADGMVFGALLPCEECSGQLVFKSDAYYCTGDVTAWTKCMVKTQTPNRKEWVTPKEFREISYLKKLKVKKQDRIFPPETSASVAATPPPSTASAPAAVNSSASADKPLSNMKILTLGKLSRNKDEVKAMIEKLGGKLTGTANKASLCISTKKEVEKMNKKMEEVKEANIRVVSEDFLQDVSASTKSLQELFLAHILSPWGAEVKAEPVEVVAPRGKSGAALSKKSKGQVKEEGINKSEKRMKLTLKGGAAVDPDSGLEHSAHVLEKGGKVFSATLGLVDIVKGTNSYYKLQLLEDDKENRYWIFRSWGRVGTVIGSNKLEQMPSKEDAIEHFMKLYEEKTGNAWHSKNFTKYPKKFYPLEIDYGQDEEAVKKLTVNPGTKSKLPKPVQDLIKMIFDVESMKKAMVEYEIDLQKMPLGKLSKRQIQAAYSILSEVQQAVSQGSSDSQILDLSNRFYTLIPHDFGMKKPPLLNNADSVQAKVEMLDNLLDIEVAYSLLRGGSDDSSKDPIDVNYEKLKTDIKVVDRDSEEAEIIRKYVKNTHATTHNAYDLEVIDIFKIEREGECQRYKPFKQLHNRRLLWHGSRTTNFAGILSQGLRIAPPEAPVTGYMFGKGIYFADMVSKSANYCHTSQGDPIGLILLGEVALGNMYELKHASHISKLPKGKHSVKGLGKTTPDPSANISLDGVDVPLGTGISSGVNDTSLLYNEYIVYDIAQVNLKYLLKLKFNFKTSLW

With Nc1ncnc2c1ncn2[C@@H]1O[C@H](COP(=O)(O)OP(=O)(O)O)[C@@H](O)[C@H]1O [ADP] as the compound, how does the “inhibition of the cleavage reaction (yes/no)” value [1] read?
Its value is “not”.

With Nc1ncnc2c1ncn2[C@@H]1O[C@H](COP(=O)(O)O)[C@@H](O)[C@H]1O [AMP, 5′adenosine monophosphate] as the compound, how does the “inhibition of degradation of nanoRNA by Orn” value [2] read?
The value was “inhibiting”.

What about the “binding of Orn to nucleotide-agarose” value [3] of the same compound?
Its value is “roughly one third”.

What about the “binding of CysQ to nucleotide-agarose” value [4] of the same compound?
Its value is “not”.

Which “inhibition of the cleavage reaction” value ([1]; 0.5 mM) does the source give for Nc1ncnc2c1ncn2[C@@H]1O[C@H](COP(=O)(O)OP(=O)(O)OP(=O)(O)O)[C@@H](O)[C@H]1O [ATP] here?
The value was 50%.

With [Ca+2].[Cl-].[Cl-] [CaCl2] as the compound, how does the “inhibition of CysQ” value ([5]; 2 mM CaCl2, in the presence of 200 mM NaCl) read?
The value was “complete inhibition”.

For Nc1ncnc2c1ncn2[C@@H]1O[C@H](COP(=O)(O)O)[C@@H](OP(=O)(O)O)[C@H]1O [pAp, 3′-phosphoadenosine 5′-phosphate], which “inhibition of degradation of nanoRNA by Orn” value [2] is on record?
Its value is “significantly more pronounced”.

And the “inhibition of Sfn-catalyzed degradation of nanoRNA” value ([6]; 20 μM pAp)?
The value was “Significant inhibition”.

What about the “inhibition of Sfn-catalyzed degradation of nanoRNA” value ([6]; 50 μM pAp) of the same compound?
The value was “increasing inhibition”.

What about the “sensitivity of Sfn-catalyzed degradation of DNA oligos” value [7] of the same compound?
Its value is “highly sensitive”.

And the PARP activity [8]?
The PARP activity was 60%.

What about the “binding of Orn to nucleotide-agarose” value [3] of the same compound?
The value was “almost quantitatively”.

And the “binding of CysQ to nucleotide-agarose” value [4]?
Its value is “almost quantitatively”.

Which “inhibition of CysQ by sodium” value ([5]; physiological concentrations, 200 mM NaCl) does the source give for [Cl-].[Na+] [sodium, NaCl] here?
Its value is “not inhibitory”.
